Assay results as given in patent US10793580B2, “Substituted pyrazoloazepin-8-ones and their use as phosphodiesterase inhibitors” (LEO Pharma A/S, priority 2016, dated 2020).

target: human PDE4D catalytic domain (Homo sapiens (Human), UniProt Q08499); test: PDE4 Assay (TR-FRET, FAM-cAMP cleavage); assay type: biochemical; settings: Table 16, Examples 277-296; read-out: PDE4 IC50 range
Method in brief: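 Readout is Tb-to-FAM time-resolved FRET after nanoparticle capture of AMP, the product of cleaving a cAMP/FAM-cAMP mixture by PDE4D catalytic domain (S380-L740) in the presence of titrated compound. Values are IC50 ranges in nM: concentration halving substrate cleavage relative to controls.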

human PDE4D catalytic domain, sequence (Q08499 380-740): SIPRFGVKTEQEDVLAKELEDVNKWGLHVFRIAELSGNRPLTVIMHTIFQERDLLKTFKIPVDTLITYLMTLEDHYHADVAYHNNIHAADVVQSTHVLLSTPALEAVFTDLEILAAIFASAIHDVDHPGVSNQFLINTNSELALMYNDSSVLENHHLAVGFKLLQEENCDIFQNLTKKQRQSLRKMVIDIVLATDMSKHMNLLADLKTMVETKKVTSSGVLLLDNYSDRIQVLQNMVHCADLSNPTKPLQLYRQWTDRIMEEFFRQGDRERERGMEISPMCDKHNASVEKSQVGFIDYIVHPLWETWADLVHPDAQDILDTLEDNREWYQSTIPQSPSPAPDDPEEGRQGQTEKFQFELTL

Row | SMILES | IC50 [nM]
1 | CCn1nc(C[C@@H](C)COC(=O)c2cncs2)c2c1C(=O)NCC1(CCOCC1)C2 [Example 286, [(2R)-3-(1-ethyl-8-oxo-spiro[6,7-dihydro-4H-pyrazolo[3,4-c]azepine-5,4′-tetrahydropyran]-3-yl)-2-methyl-propyl] thiazole-5-carboxylate] | < 100

same assay, conditions: Table 17, Examples 297-316; read-out: PDE4 IC50 range

Row | SMILES | IC50 [nM]
2 | CCn1nc(CC(C)(C)COC(=O)c2coc(C)n2)c2c1C(=O)NCC1(CCOCC1)C2 [Example 301, [3-(1-ethyl-8-oxo-spiro[6,7-dihydro-4H-pyrazolo[3,4-c]azepine-5,4′-tetrahydropyran]-3-yl)-2,2-dimethyl-propyl] 2-methyloxazole-4-carboxylate] | < 100
3 | CCn1nc(CC(C)(C)COC(=O)c2cnc(C)nc2)c2c1C(=O)NCC1(CCOCC1)C2 [Example 308, [3-(1-ethyl-8-oxo-spiro[6,7-dihydro-4H-pyrazolo[3,4-c]azepine-5,4′-tetrahydropyran]-3-yl)-2,2-dimethyl-propyl] 2-methylpyrimidine-5-carboxylate] | < 100
4 | CCn1nc(CC(C)(C)COC(=O)c2csc(C)n2)c2c1C(=O)NCC1(CCOCC1)C2 [Example 310, [3-(1-ethyl-8-oxo-spiro[6,7-dihydro-4H-pyrazolo[3,4-c]azepine-5,4′-tetrahydro-pyran]-3-yl)-2,2-dimethyl-propyl] 2-methylthiazole-4-carboxylate] | < 100
5 | CCn1nc(CC(C)(C)COC(=O)c2cscn2)c2c1C(=O)NCC1(CCOCC1)C2 [Example 305, [3-(1-ethyl-8-oxo-spiro[6,7-dihydro-4H-pyrazolo[3,4-c]azepine-5,4′-tetrahydro-pyran]-3-yl)-2,2-dimethyl-propyl] thiazole-4-carboxylate] | < 100

same assay, conditions: human PDE4D catalytic domain (UniProt Q08499 [S380-L740]); 50% inhibition of substrate cleavage; read-out: PDE4 IC50 range

Row | SMILES | IC50 [nM]
6 | CCn1nc(CCCOC(=O)c2cccc(C(=O)N3CCN(C(C)=O)CC3)c2)c2c1C(=O)NCC1(CCOCC1)C2 [Example 120, 3-(1-ethyl-8-oxo-spiro[6,7-dihydro-4H-pyrazolo[3,4-c]azepine-5,4′-tetrahydropyran]-3-yl)propyl 3-(4-acetylpiperazine-1-carbonyl)benzoate] | < 100
7 | CCn1nc(CC(C)(C)COC(=O)c2ccc(S(=O)(=O)C(C)C)cc2)c2c1C(=O)NCC1(CCOCC1)C2 [Example 207, [3-(1-ethyl-8-oxo-spiro[6,7-dihydro-4H-pyrazolo[3,4-c]azepine-5,4′-tetrahydropyran]-3-yl)-2,2-dimethyl-propyl] 4-isopropylsulfonylbenzoate] | < 100
8 | CCn1nc(CCCCOC(=O)C2CCCC2)c2c1C(=O)NCC1(CCOCC1)C2 [Example 122, 4-(1-ethyl-8-oxo-spiro[6,7-dihydro-4H-pyrazolo[3,4-c]azepine-5,4′-tetrahydropyran]-3-yl)butyl cyclopentane-carboxylate] | < 100
9 | CCn1nc(C[C@@H](C)COC(=O)c2ccc(S(=O)(=O)C(C)C)cc2)c2c1C(=O)NCC1(CCOCC1)C2 [Example 160, [(2R)-3-(1-ethyl-8-oxo-spiro[6,7-dihydro-4H-pyrazolo[3,4-c]azepine-5,4′-tetrahydropyran]-3-yl)-2-methyl-propyl] 4-isopropylsulfonylbenzoate] | < 100
10 | CCn1nc(CCCCOC(=O)C2CCN(C(C)=O)CC2)c2c1C(=O)NCC1(CCOCC1)C2 [Example 274, 4-(1-ethyl-8-oxo-spiro[6,7-dihydro-4H-pyrazolo[3,4-c]azepine-5,4′-tetrahydropyran]-3-yl)butyl 1-acetylpiperidine-4-carboxylate] | < 100
11 | CCn1nc(CCCCOC(=O)c2ccc(F)cc2)c2c1C(=O)NCC1(CCOCC1)C2 [Example 124, 4-(1-ethyl-8-oxo-spiro[6,7-dihydro-4H-pyrazolo[3,4-c]azepine-5,4′-tetrahydropyran]-3-yl)butyl 4-fluorobenzoate] | < 100
12 | CCn1nc(C[C@@H](C)COC(=O)c2ccccc2OC)c2c1C(=O)NCC1(CCOCC1)C2 [Example 151, [(2R)-3-(1-ethyl-8-oxo-spiro[6,7-dihydro-4H-pyrazolo[3,4-c]azepine-5,4′-tetrahydropyran]-3-yl)-2-methyl-propyl] 2-methoxybenzoate] | < 100
13 | CCn1nc(CCCOC(=O)c2ccc(C#N)cc2)c2c1C(=O)NCC1(CCOCC1)C2 [Example 12, 3-(1-ethyl-8-oxo-spiro[6,7-dihydro-4H-pyrazolo[3,4-c]azepine-5,4′-tetrahydropyran]-3-yl) propyl 4-cyanobenzoate] | < 100
14 | CCn1nc(CCCOC(=O)c2ccc(Cl)cc2OC)c2c1C(=O)NCC1(CCOCC1)C2 [Example 61, 3-(1-ethyl-8-oxo-spiro[6,7-dihydro-4H-pyrazolo[3,4-c]azepine-5,4′-tetrahydropyran]-3-yl)propyl 4-chloro-2-methoxy-benzoate] | < 100
15 | CCn1nc(CCCOC(=O)C2CCN(C(C)=O)CC2)c2c1C(=O)NCC1(CCOCC1)C2 [Example 261, 3-(1-ethyl-8-oxo-spiro[6,7-dihydro-4H-pyrazolo[3,4-c]azepine-5,4′-tetrahydropyran]-3-yl)propyl 1-acetylpiperidine-4-carboxylate] | < 100
16 | CCn1nc(CCCOC(=O)c2ccc(Cl)cc2)c2c1C(=O)NCC1(CCOCC1)C2 [Example 22, 3-(1-ethyl-8-oxo-spiro[6,7-dihydro-4H-pyrazolo[3,4-c]azepine-5,4′-tetrahydropyran]-3-yl)propyl 4-chlorobenzoate] | < 100
17 | CCn1nc(CCCOC(=O)c2cc(F)cc(Cl)c2)c2c1C(=O)NCC1(CCOCC1)C2 [Example 47, 3-(1-ethyl-8-oxo-spiro[6,7-dihydro-4H-pyrazolo[3,4-c]azepine-5,4′-tetrahydropyran]-3-yl)propyl 3-chloro-5-fluoro-benzoate] | < 100
18 | CCn1nc(CCCOC(=O)c2cc(F)ccc2Cl)c2c1C(=O)NCC1(CCOCC1)C2 [Example 46, 3-(1-ethyl-8-oxo-spiro[6,7-dihydro-4H-pyrazolo[3,4-c]azepine-5,4′-tetrahydropyran]-3-yl)propyl 2-chloro-5-fluoro-benzoate] | < 100
19 | CCn1nc(CCCCOC(=O)c2ccc(C(=O)N3CCOCC3)cc2)c2c1C(=O)NCC1(CCOCC1)C2 [Example 133, 4-(1-ethyl-8-oxo-spiro[6,7-dihydro-4H-pyrazolo[3,4-c]azepine-5,4′-tetrahydropyran]-3-yl)butyl 4-(morpholine-4-carbonyl)benzoate] | < 100
20 | CCn1nc(CC(C)(C)COC(=O)c2ccc(C(=O)N3CCN(C(C)=O)CC3)cc2)c2c1C(=O)NCC1(CCOCC1)C2 [Example 225, [3-(1-ethyl-8-oxo-spiro[6,7-dihydro-4H-pyrazolo[3,4-c]azepine-5,4'-tetrahydropyran]-3-yl)-2,2-dimethyl-propyl] 4-(4-acetylpiperazine-1-carbonyl)benzoate] | < 100
21 | CCn1nc(CCCOC(=O)C2CCN(C(=O)N(C)C)CC2)c2c1C(=O)NCC1(CCOCC1)C2 [Example 264, 3-(1-ethyl-8-oxo-spiro[6,7-dihydro-4H-pyrazolo[3,4-c]azepine-5,4′-tetrahydro-pyran]-3-yl)propyl 1-(dimethyl-carbamoyl)piperidine-4-carboxylate] | < 100
22 | CCn1nc(C[C@@H](C)COC(=O)c2cccc(C(=O)NC)c2)c2c1C(=O)NCC1(CCOCC1)C2 [Example 179, [(2R)-3-(1-ethyl-8-oxo-spiro[6,7-dihydro-4H-pyrazolo[3,4-c]azepine-5,4′-tetrahydropyran]-3-yl)-2-methyl-propyl] 3-(methylcarbamoyl)benzoate] | < 100
23 | CCC(CC)C(=O)OCCCc1nn(CC)c2c1CC1(CCOCC1)CNC2=O [Example 6, 3-(1-ethyl-8-oxo-spiro[6,7-dihydro-4H-pyrazolo[3,4-c]azepine-5,4′-tetrahydropyran]-3-yl)propyl 2-ethylbutanoate] | < 100
24 | CCn1nc(C[C@@H](C)COC(=O)c2ccc(OC)cc2)c2c1C(=O)NCC1(CCOCC1)C2 [Example 149, [(2R)-3-(1-ethyl-8-oxo-spiro[6,7-dihydro-4H-pyrazolo[3,4-c]azepine-5,4′-tetrahydropyran]-3-yl)-2-methyl-propyl] 4-methoxybenzoate] | < 100
25 | CCn1nc(CCCOC(=O)c2ccc(C(N)=O)cc2)c2c1C(=O)NCC1(CCOCC1)C2 [Example 104, 3-(1-ethyl-8-oxo-spiro[6,7-dihydro-4H-pyrazolo[3,4-c]azepine-5,4′-tetrahydropyran]-3-yl)propyl 4-carbamoylbenzoate] | < 100
26 | CCn1nc(C[C@@H](C)COC(=O)c2ccc(C(=O)N3CCN(C(C)=O)CC3)cc2)c2c1C(=O)NCC1(CCOCC1)C2 [Example 176, [(2R)-3-(1-ethyl-8-oxo-spiro[6,7-dihydro-4H-pyrazolo[3,4-c]azepine-5,4′-tetrahydropyran]-3-yl)-2-methyl-propyl] 4-(4-acetylpiperazine-1-carbonyl)benzoate] | < 100
27 | CCn1nc(CCOC(=O)c2ccc(C)cc2)c2c1C(=O)NCC1(CCOCC1)C2 [Example 135, 2-(1-ethyl-8-oxo-spiro[6,7-dihydro-4H-pyrazolo[3,4-c]azepine-5,4′-tetrahydropyran]-3-yl)ethyl 4-methylbenzoate] | < 100
28 | CCn1nc(CC(C)(C)COC(=O)c2ccc(S(=O)(=O)N3CCN(C(C)=O)CC3)cc2)c2c1C(=O)NCC1(CCOCC1)C2 [Example 216, [3-(1-ethyl-8-oxo-spiro[6,7-dihydro-4H-pyrazolo[3,4-c]azepine-5,4′-tetrahydropyran]-3-yl)-2,2-dimethyl-propyl] 4-(4-acetylpiperazin-1-yl)sulfonylbenzoate] | < 100
29 | CCn1nc(CCCOC(=O)c2ccc(C)cc2F)c2c1C(=O)NCC1(CCOCC1)C2 [Example 18, 3-(1-ethyl-8-oxo-spiro[6,7-dihydro-4H-pyrazolo[3,4-c]azepine-5,4′-tetrahydropyran]-3-yl)propyl 2-fluoro-4-methyl-benzoate] | < 100
